Data published in US20210388337A1, “PROTEIN-POLYMER CONJUGATES AND METHODS FOR THEIR PREPARATION” (Carnegie Mellon University, priority 2018, published 2021).

Legend:
native avidin [1] = target: T1, native avidin (Gallus gallus, UniProt P02701); assay: Biotin effect on quenched fluorescence; assay type: binding; details: native avidin 5 μM; free initiator or free initiation inhibitor 5.12 mM; biotin 10 μM
T1 construct: Avidin is a tetrameric protein purified from egg white; purchased Lee Biosolutions; host or cells: egg white
Method: Biotin effect on quenched fluorescence: […] Free initiator (10 μL, final concentrations 5.12 mM) or free initiation inhibitor (10 μL, final concentrations 5.12 mM) were added to avidin solution and florescence intensities were measured. After the fluorescence intensities were recorded with free initiator or free initiation inhibitor, biotin (10 μL, final concentration 10 μM) was added to the mixture and fluorescence intensities were measured again.

native avidin [2] = target: T1, native avidin; assay: Tryptophan fluorescence quenching assay; assay type: binding; details: native avidin 5 μM; added at 20 μM-5.12 mM
Method: Tryptophan fluorescence quenching assay: Intrinsic tryptophan fluorescence intensity of native avidin (180 μL, final concentration 5 μM) was measured at an excitation wavelength of 270 nm and emission of 300-400 nm in a 96-well plate. N-2-bromo-2-methylpropanoyl-β-alanine (free initiator) (20 μL, final concentrations 20 μM, 80 μM, 320 μM, 1.28 mM, 5.12 mM) or N-2-methylpropanoyl-β-alanine (free initiation inhibitor) (20 μL, final concentrations 20 μM, 80 μM, 320 μM, 1.28 mM, 5.12 mM) were added to native avidin and tryptophan fluorescence was measured again.

[3] = Hydrodynamic diameter by dynamic light scattering; assay type: physicochemical; details: DLS; for substrate size (Dh): biotinylated substrates, text and FIG. 10 legend
Method: Measuring conjugate hydrodynamic diameter: The DLS data was collected on a Malvern Zetasizer nano-ZS. Native avidin and avidin conjugates ([…]) were dissolved in 0.1 M sodium phosphate, pH 8. The hydrodynamic diameter (Dh) of the samples was measured three times (12 runs/measurement). Reported values are number distribution intensities.
Instrumentation and Sample Analysis Preparations: ^1H and ^13C NMR were recorded on a spectrometer (300 MHz, 75 MHz, Bruker Avance™ 300), with deuterium oxide (D2O), DMSO-d6, and CDCl3. Routine FT-IR spectra were obtained with a Nicolet Magna-IR 560 spectrometer (Thermo). UV-VIS spectra were obtained and used for protein concentration determination using a UV-VIS spectrometer (Lambda 2, PerkinElmer). Melting points (mp) were measured with a Laboratory Devices Mel-Temp. Number and weight average molecular weights (Mn and Mw) and the polydispersity index (Mw/Mn) were estimated by gel permeation chromatography (GPC) on a Water 2695 Series with a data processor, equipped with three columns (Waters Ultrahydrogel Linier, 500 and 250), using Dulbecco's Phosphate Buffered Saline with 0.02 wt % sodium azide as an eluent at flow rate 1.0 mL/min, with detection by a refractive index (RI) detector. Pullulan standards (PSS-Polymer Standards Service—USA Inc., Amherst, Mass.) were used for calibration. Matrix-Assisted Laser Desorption Ionization Time-of-Flight Spectrometry (MALDI-ToF MS) was performed with a Perseptive Biosystems Voyager Elite MALDI-TOF spectrometer. Dynamic Light Scattering (DLS) data were collected on a Malvern Zetasizer nano-ZS. The concentration of the sample solution was kept at 1.0 mg/mL. The hydrodynamic diameter of samples was measured three times (5 run to each measurement, reported as number distribution) in 0.1 M sodium phosphate, pH 8. Biotin and bio-PEG binding kinetics were measured using a stopped-flow spectrometer with fluorescence detection (Applied Photophysics SX20). […] The excitation wavelength was set to 295 nm and emission wavelength was monitored at 340 nm. […] Fluorescence was measured in volts.

[4] = Stopped-flow biotin-PEG binding kinetics, 5 kDa; details: avidin 0.5 μM, biotin-PEG 5.0 μM, 0.1 M phosphate buffer pH 8
Method: (§1) Biotin and biotin PEG binding kinetics: Kinetic measurements of avidin-pCBMA conjugates with biotin and biotin-PEG substrates were taken using a stopped-flow spectrometer with fluorescence detection (Applied Photophysics SX20). The dead time of the instrument was 2 ms. The excitation wavelength was 270 nm with 5 nm bandwidth. Instrument permitted to collect 1000 data points throughput the reaction (0.1-450 s). For all experiments avidin concentration was 0.5 μM (final) and biotin or biotin-PEG concentration was 5.0 μM (final). Reactions were initiated by mixing equal volumes of avidin with its substrates in 0.1 M phosphate buffer, pH 8. Fluorescence was measured in volts. Data were fit to single exponential functions using F(t)=F∞·ΔFexp(−kobst) equation, where, kobs is the observed first-order rate constant, F∞ is the final value of fluorescence and ΔF is the amplitude. In case of native avidin kinetics the data were fit to single exponential functions using F(t)=F∞+ΔFexp(−kobst) equation, where, kobs is the observed first-order rate constant, F∞ is the final value of fluorescence and ΔF is the amplitude. […]
(§2) Instrumentation and Sample Analysis Preparations: ^1H and ^13C NMR were recorded on a spectrometer (300 MHz, 75 MHz, Bruker Avance™ 300), with deuterium oxide (D2O), DMSO-d6, and CDCl3. […] Melting points (mp) were measured with a Laboratory Devices Mel-Temp. […]

Biotin-HRP = assay: Stopped-flow biotin-protein binding kinetics, biotin-HRP; details: avidin 0.5 μM, biotin-protein 5.0 μM, 0.1 M phosphate buffer pH 8
Method: (§3) The solution was stirred at 4° C. for 2 hours and protein-biotin conjugates were purified by dialysis using 15 kDa molecular mass cutoff dialysis tube in deionized water and then lyophilized.
(§4) Biotin-Protein binding kinetics: For biotinylated protein binding kinetics avidin conjugates (0.5 μM final) were mixed with biotin-protein (5.0 μM final) in a stopped-flow accessory on PTI QuantaMaster-400 fluorometer (Horiba Instruments Inc.). The dead time of the instrument was 60 ms. The excitation wavelength was 295 nm (to selectively excite tryptophan residues) with a 20 nm bandwidth (Skelly et al., FEBS Lett 262:127-130, 1990). Excitation occurred through a 1.96-mm path in the stopped-flow optical cell, and emission was measured through a 7.68-mm path. […]
(§5) Instrumentation and Sample Analysis Preparations: ^1H and ^13C NMR were recorded on a spectrometer (300 MHz, 75 MHz, Bruker Avance™ 300), with deuterium oxide (D2O), DMSO-d6, and CDCl3. […] Melting points (mp) were measured with a Laboratory Devices Mel-Temp. […] The hydrodynamic diameter of samples was measured three times (5 run to each measurement, reported as number distribution) in 0.1 M sodium phosphate, pH 8. Biotin and bio-PEG binding kinetics were measured using a stopped-flow spectrometer with fluorescence detection (Applied Photophysics SX20). […] The excitation wavelength was set to 295 nm and emission wavelength was monitored at 340 nm. […]

[5] = Stopped-flow biotin-PEG binding kinetics, 10 kDa; details: avidin 0.5 μM, biotin-PEG 5.0 μM, 0.1 M phosphate buffer pH 8
Method: as §1, §2

Biotin-aprotinin = target: T2, Biotin-aprotinin (Bos taurus, UniProt P00974); assay: Stopped-flow biotin-protein binding kinetics, biotin-aprotinin; details: avidin 0.5 μM, biotin-protein 5.0 μM, 0.1 M phosphate buffer pH 8
T2 construct: purchased Sigma Aldrich
Method: as §3, §4, §5

[6] = Stopped-flow biotin-PEG binding kinetics, 550 Da; details: for Biotin-PEG 550 Da k/s^−1: avidin 0.5 μM, biotin-PEG 5.0 μM, 0.1 M phosphate buffer pH 8
Method: Biotin and biotin PEG binding kinetics: Kinetic measurements of avidin-pCBMA conjugates with biotin and biotin-PEG substrates were taken using a stopped-flow spectrometer with fluorescence detection (Applied Photophysics SX20). The dead time of the instrument was 2 ms. The excitation wavelength was 270 nm with 5 nm bandwidth. Instrument permitted to collect 1000 data points throughput the reaction (0.1-450 s). For all experiments avidin concentration was 0.5 μM (final) and biotin or biotin-PEG concentration was 5.0 μM (final). Reactions were initiated by mixing equal volumes of avidin with its substrates in 0.1 M phosphate buffer, pH 8. Fluorescence was measured in volts. Data were fit to single exponential functions using F(t)=F∞·ΔFexp(−kobst) equation, where, kobs is the observed first-order rate constant, F∞ is the final value of fluorescence and ΔF is the amplitude. In case of native avidin kinetics the data were fit to single exponential functions using F(t)=F∞+ΔFexp(−kobst) equation, where, kobs is the observed first-order rate constant, F∞ is the final value of fluorescence and ΔF is the amplitude. All data analysis was performed in Microsoft Excel.
Instrumentation and Sample Analysis Preparations: ^1H and ^13C NMR were recorded on a spectrometer (300 MHz, 75 MHz, Bruker Avance™ 300), with deuterium oxide (D2O), DMSO-d6, and CDCl3. Routine FT-IR spectra were obtained with a Nicolet Magna-IR 560 spectrometer (Thermo). UV-VIS spectra were obtained and used for protein concentration determination using a UV-VIS spectrometer (Lambda 2, PerkinElmer). Melting points (mp) were measured with a Laboratory Devices Mel-Temp. […] The hydrodynamic diameter of samples was measured three times (5 run to each measurement, reported as number distribution) in 0.1 M sodium phosphate, pH 8. Biotin and bio-PEG binding kinetics were measured using a stopped-flow spectrometer with fluorescence detection (Applied Photophysics SX20). […] The excitation wavelength was set to 295 nm and emission wavelength was monitored at 340 nm. […] Fluorescence was measured in volts.

[7] = Stopped-flow binding kinetics of biotin to avidin and avidin-pCBMA conjugates; details: kobs first-order, avidin 0.5 μM, biotin 5.0 μM, 0.1 M phosphate buffer pH 8
Method: as §1, §2

[8] = Stopped-flow biotin-PEG binding kinetics, 30 kDa; details: avidin 0.5 μM, biotin-PEG 5.0 μM, 0.1 M phosphate buffer pH 8
Method: as §1, §2

[9] = work described elsewhere (Kurzban et al.); 337 to 324 nm, blue shift in emission; cited from earlier work
[10] = Table 4, low-density avidin conjugates
[11] = Table 9, high-density avidin conjugates

## O=C(O)CCCC[C@@H]1SC[C@@H]2NC(=O)N[C@@H]21 [biotin]
Native avidin [1]
  effect on tryptophan fluorescence of native avidin incubated with free initiator or free initiation inhibitor: restored the quenched tryptophan fluorescence

## CC(C)C(=O)NCCC(=O)O [free initiation inhibitor, N-2-methylpropanoyl-β-alanine]
Native avidin [1]
  effect on tryptophan fluorescence of native avidin incubated with free initiator or free initiation inhibitor: did not have effect on fluorescence
Native avidin [2]
  quenching of native avidin tryptophan fluorescence: None of the tested concentrations of initiation inhibitor had an effect on fluorescence

## CC(C)(Br)C(=O)NCCC(=O)O [free initiator, N-2-bromo-2-methylpropanoyl-β-alanine]
Native avidin [2]
  quenching of native avidin tryptophan fluorescence: higher degree of fluorescence quenching

## Aprotinin [reference compound]
[3]; bio-pro substrates, Table 3
  Dh (hydrodynamic size): 2.4 ± 0.4
[3]; listed as biotin-aprotinin
  substrate size (Dh): 2.4±0.4 nm
[3]; listed as biotinylated aprotinin
  substrate size (Dh): 2.4 nm

## Native avidin
[4]; [10]
  Biotin-PEG 5 kDa k/s^−1: 17.02 s⁻¹
[4]; [11]
  Biotin-PEG 5 kDa k/s^−1: 17.02 s⁻¹
Biotin-HRP; [10]
  Biotin-HRP k/s^−1: 5.03 s⁻¹
Biotin-HRP; [11]
  Biotin-HRP k/s^−1: 5.03 s⁻¹
[5]; [10]
  Biotin-PEG 10 kDa k/s^−1: 12.02 s⁻¹
[5]; [11]
  Biotin-PEG 10 kDa k/s^−1: 12.02 s⁻¹
Biotin-aprotinin; [10]
  Biotin-aprotinin k/s^−1: 73.45 s⁻¹
Biotin-aprotinin; [11]
  Biotin-aprotinin k/s^−1: 73.45 s⁻¹
[6]; [10]
  Biotin-PEG 550 Da k/s^−1: 20.93 s⁻¹
[6]; [11]
  Biotin-PEG 550 Da k/s^−1: 20.93 s⁻¹
[6]; relative to biotin binding rate
  binding rate of biotin-PEG 550 Da, slower than biotin: 80%
[7]; [10]
  Biotin k/s^−1: 105.21 s⁻¹
[7]; [11]
  Biotin k/s^−1: 105.21 s⁻¹
[8]; [10]
  Biotin-PEG 30 kDa k/s^−1: 5.89 s⁻¹
[8]; [11]
  Biotin-PEG 30 kDa k/s^−1: 5.89 s⁻¹
[9]
  intrinsic tryptophan fluorescence of avidin upon biotin binding: decreased
